Experimental data as given in patent publication US20240181081A1, “Compositions and Methods for Treatment of Myotonic Dystrophy Type 1 with CRISPR/SACAS9” (Vertex Pharmaceuticals Incorporated, priority 2021, published 2024).

Legend:
[1] = tested on: CTG repeat expansion in the 3′ UTR of human DMPK gene; assay: DOUBLE-cut screening: CTG repeat excision by loss-of-signal ddPCR in primary DM1 patient myoblasts; type: cell-based; settings: sgRNA pair RNP, mean of upstream and downstream ddPCR assays; for % of CTG repeat excision efficiency by ddPCR (DNA-PKi): 3 μM Compound 6 for 48 hrs; for % of CTG repeat excision efficiency by ddPCR (Vehicle): DMSO 48 hrs
Description: (§1) RNPs were assembled with recombinant SaCas9 protein (Aldevron) and chemically modified sgRNAs (Synthego) at a ratio of 1:3 (protein:sgRNA). For SINGLE-cut screening, RNP complexes were assembled with 30 pmol of SaCas9 and 90 pmol of sgRNA in P5 Primary Cell Nucleofector Solution (Lonza). After incubation at room temperature for 20 minutes, 10 μL of RNP complex was mixed with two hundred thousand primary myoblasts resuspended in 10 μL of P5 Nucleofector Solution. For DOUBLE-cut screening, RNP complexes were first assembled for individual sgRNAs with 20 pmol of SaCas9 protein and 60 pmol of sgRNAs in 5 μL of P5 Nucleofector Solution. After incubation at room temperature for 20 minutes, the two RNP complexes (one for upstream sgRNA and one for downstream sgRNA) were mixed at 1:1 ratio and then further mixed with two hundred thousand primary myoblasts resuspended in 10 μL of P5 Nucleofector Solution.
(§2) The Nucleofector 96-well Shuttle System (Lonza) was used to deliver the SaCa9/sgRNA RNPs into primary DM1 patient myoblasts using the nucleofection program CM138. Following nucleofection, myoblasts from each well of nucleofection shuttle were split into six wells of the 96-well cell culture plate (Greiner, 655090) coated with matrigel. The first three wells were treated with DMSO for 48 hrs before changing to fresh myoblast growth medium, and the other three wells were treated with 3 μM of DNA-PKi Compound 6 for 48 hrs before changing to fresh myoblast growth medium. 72 hrs post nucleofection, two wells of DMSO-treated myoblasts and two wells of DNA-PKi-treated myoblasts from each nucleofection were harvested for genomic DNA extraction using the Kingfisher Flex purification system (Thermal Fisher), whereas one well of DMSO-treated myoblasts and one well of DNA-PKi-treated myoblasts were stained for RNA foci by FISH staining.
The primers and probes of ddPCR were designed using the online primer design software Primer3Plus (http://www.bioinformatics.nl/cgi-bin/primer3plus/primer3plus.cgi). The two Target primers/probe sets were used to detect CTG repeat excision, and the Reference primers/probe set was used to amplify a region located in Exon 1 of human DMPK gene and it served as a reference control for the Target sets. The 24 μL of ddPCR reaction consisted of 12 μL of Supermix for Probes (no dUTP) (Bio-Rad Laboratories), 1 μL of Reference primers mix (21.6 μM), 1 μL of Reference probe (6 μM), 1 μL of Target primers mix (21.6 μM), 1 μL of Target probe (6 μM), and 8 μL of sample genomic DNA. Droplets were generated using probe oil with the QX200 Droplet Generator (Bio-Rad Laboratories). Droplets were transferred to a 96-well PCR plate, sealed and cycled in a C1000 deep well Thermocycler (Bio-Rad Laboratories) under the following cycling protocol: 1 cycle at 95° C. for 10 min; 40 cycles of 94° C. for 30 sec, and 58° C. for 1 min; 1 cycle at 98° C. for 10 min (for enzyme inactivation). The cycled plate was then transferred and read in the FAM and HEX channels using the Bio-Rad QX200 Droplet Reader (Bio-Rad Laboratories). ddPCR analysis was performed with the Bio-Rad QuantaSoft Pro Software.
Next, DOUBLE-cut screening was performed to assess the efficiency of paired sgRNAs-induced CTG repeat excision and RNA foci reduction. 90 SaCas9 sgRNA pairs formed by one upstream sgRNA and one downstream sgRNA were assembled with recombinant SaCas9 protein into RNP complex and nucleofected into primary DM1 patient myoblasts. Nucleofected myoblasts were treated with either DMSO (vehicle) or 3 μM of Compound 6 (DNA-PKi) for 48 hrs. 72 hrs post nucleofection, myoblasts were subjected to either genomic DNA isolation or RNA foci staining.
One upstream and one downstream loss-of-signal droplet digital PCR (ddPCR) assays were used to determine the efficiency of CTG repeat excision. ddPCR signals would be abolished upon excision of the CTG repeat expansion in these loss-of-signal ddPCR assays. […]

[2] = tested on: CUG RNA foci in primary DM1 patient myoblasts; assay: DOUBLE-cut screening: FISH staining of RNA foci in primary DM1 patient myoblasts; type: cell-based, human; settings: sgRNA pair RNP, 72 hrs post nucleofection; for % of CUG foci free nuclei (DNA-PKi): 3 μM Compound 6 for 48 hrs; for % of CUG foci free nuclei (Vehicle): DMSO 48 hrs
Description: as §1, §2
Primary myoblasts were fixed for 15 min with 4% paraformaldehyde (PFA) and washed five times with 1×PBS for 10 min each at room temperature. Before staining, cells were permeabilized with 0.5% triton X-100 in 1×PBS for 5 min at room temperature, and then washed with 30% formamide and 2× saline-sodium citrate (SSC) mixture for 10 min at room temperature. Cells were then stained with 1 ng/μL of Cy3-PNA(CAG) 5 probe (PNA Bio, F5001) diluted in 30% formamide, 2×SSC, 2 μg/mL BSA, 66 μg/mL yeast tRNA, and 2 mM vanadyl complex for 15 min at 80° C. Following probe staining, cells were then washed in 30% formamide and 2×SSC mixture for 30 min at 42° C., then washed in 30% formamide and 2×SSC mixture for 30 min at 37° C., and then washed in 1×SSC solution for 10 min at room temperature, and finally washed in 1×PBS for 10 min at room temperature. Cells were next stained with anti-MBNL1 antibody (Santa Cruz, 3A4) diluted in 1% bovine serum albumin (BSA) for overnight at 4° C., and washed twice with 1×PBS for 10 min each at room temperature. Cells were then incubated with the secondary antibody goat […] Alexa 647 (Thermo Fisher, A32728) diluted in 1% BSA for 1 hr at room temperature, and washed twice with 1×PBS for 10 min each at room temperature. Next, cells were stained with Hoechst solution (Thermo Fisher, H3569) at 0.1 mg/ml for 5 min, and washed once with 1×PBS for 5 min. PBS was aspirated and fresh 100 μl of fresh PBS was added to each well. High-throughput acquisition of images was completed with the ImageXpress Micro Confocal High-Content Imaging System (Molecular Devices). RNA foci quantifications were accomplished with a customized analysis module of the MetaXpress program (Molecular Devices).
Next, DOUBLE-cut screening was performed to assess the efficiency of paired sgRNAs-induced CTG repeat excision and RNA foci reduction. 90 SaCas9 sgRNA pairs formed by one upstream sgRNA and one downstream sgRNA were assembled with recombinant SaCas9 protein into RNP complex and nucleofected into primary DM1 patient myoblasts. […]

| Substance | % of CTG repeat excision efficiency by ddPCR (DNA-PKi) [1] [%] | % of CTG repeat excision efficiency by ddPCR (Vehicle) [1] [%] | % of CUG foci free nuclei (DNA-PKi) [2] [%] | % of CUG foci free nuclei (Vehicle) [2] [%] |
| --- | --- | --- | --- | --- |
| SaU1 + SaD15: SaCas9 sgRNA pair, SEQ ID NOs: 1 and 23 (guide 1 GCCCCGGAGTCGAAGACAGTTC; guide 2 GACAATAAATACCGAGGAATGT; listed as DNA, chemistry not fully specified) | 64.96 | 37.54 | 85.70 | 72.80 |
| SaU1 + SaD17: SaCas9 sgRNA pair, SEQ ID NOs: 1 and 25 (guide 1 GCCCCGGAGTCGAAGACAGTTC; guide 2 TTTATTCGCGAGGGTCGGGGGT; listed as DNA, chemistry not fully specified) | 53.66 | 26.29 | 75.32 | 45.51 |
| SaU1 + SaD18: SaCas9 sgRNA pair, SEQ ID NOs: 1 and 26 (guide 1 GCCCCGGAGTCGAAGACAGTTC; guide 2 GGGCCTTTTATTCGCGAGGGTC; listed as DNA, chemistry not fully specified) | 47.64 | 19.40 | 69.94 | 29.85 |
| SaU1 + SaD19: SaCas9 sgRNA pair, SEQ ID NOs: 1 and 27 (guide 1 GCCCCGGAGTCGAAGACAGTTC; guide 2 AGGACCCCCACCCCCGACCCTC; listed as DNA, chemistry not fully specified) | 52.62 | 32.74 | 76.49 | 49.44 |
| SaU1 + SaD20: SaCas9 sgRNA pair, SEQ ID NOs: 1 and 28 (guide 1 GCCCCGGAGTCGAAGACAGTTC; guide 2 AGATGGAGGGCCTTTTATTCGC; listed as DNA, chemistry not fully specified) | 61.37 | 39.94 | 83.73 | 69.61 |
| SaU2 + SaD2: SaCas9 sgRNA pair, SEQ ID NOs: 2 and 10 (guide 1 ACTCAGTCTTCCAACGGGGCCC; guide 2 TCGGCCAGGCTGAGGCCCTGAC; listed as DNA, chemistry not fully specified) | 56.39 | 52.26 | 83.29 | 81.76 |
| SaU2 + SaD3: SaCas9 sgRNA pair, SEQ ID NOs: 2 and 11 (guide 1 ACTCAGTCTTCCAACGGGGCCC; guide 2 CAACGATAGGTGGGGGTGCGTG; listed as DNA, chemistry not fully specified) | 56.04 | 36.75 | 80.14 | 55.11 |
| SaU2 + SaD5: SaCas9 sgRNA pair, SEQ ID NOs: 2 and 13 (guide 1 ACTCAGTCTTCCAACGGGGCCC; guide 2 GGGTTTGGCAAAAGCAAATTTC; listed as DNA, chemistry not fully specified) | 59.19 | 38.64 | 83.71 | 75.82 |
| SaU2 + SaD6: SaCas9 sgRNA pair, SEQ ID NOs: 2 and 14 (guide 1 ACTCAGTCTTCCAACGGGGCCC; guide 2 CTTTTGCCAAACCCGCTTTTTC; listed as DNA, chemistry not fully specified) | 45.77 | 24.88 | 65.23 | 31.53 |
| SaU2 + SaD7: SaCas9 sgRNA pair, SEQ ID NOs: 2 and 15 (guide 1 ACTCAGTCTTCCAACGGGGCCC; guide 2 GGGGCGCGGGATCCCCGAAAAA; listed as DNA, chemistry not fully specified) | 52.12 | 29.62 | 76.74 | 49.05 |
| SaU2 + SaD10: SaCas9 sgRNA pair, SEQ ID NOs: 2 and 18 (guide 1 ACTCAGTCTTCCAACGGGGCCC; guide 2 TTGGGGGTCCTGTAGCCTGTCA; listed as DNA, chemistry not fully specified) | 66.52 | 38.02 | 82.97 | 75.56 |
| SaU2 + SaD11: SaCas9 sgRNA pair, SEQ ID NOs: 2 and 19 (guide 1 ACTCAGTCTTCCAACGGGGCCC; guide 2 CAAAACGTGGATTGGGGTTGTT; listed as DNA, chemistry not fully specified) | 52.97 | 26.90 | 73.23 | 48.38 |
